What was measured:
[1] = relative stability of ODV succinate polymorphic forms; assay type: physicochemical; settings: compared with the other forms of ODV succinate
[2] = cited from earlier work
[3] = in vivo, po; cited from earlier work
[4] = in vivo; cited from earlier work
[5] = cited from earlier work; remark: listed apart in the source
serotonin uptake = settings: cited from earlier work
norepinephrine uptake = settings: cited from earlier work

With CN(C)CC(c1ccc(O)cc1)C1(O)CCCCC1.O=C(O)CCC(=O)O (centres unmarked) [Form II of ODV succinate, O-desmethyl venlafaxine (ODV) succinate monohydrate] the “stability of polymorphic form” value [1] was “most stable form”.
In the case of CN(C)CC(c1ccc(O)cc1)C1(O)CCCCC1.O=C(O)CCC(=O)O (centres unmarked) [ODV succinate, O-desmethyl venlafaxine (ODV) succinate], the permeability [2] is listed as “high”, the “incidence of nausea, vomiting, diarrhea, abdominal pain, headache, vasovagal malaise and/or trismus” value [3] is listed as “lower incidence” and the “absorption in the gastrointestinal tract” value [4] is listed as “well absorbed”. For the same compound, the bioavailability [4] was “high” and the solubility [5] was “high”.
In the case of CN(C)CC(c1ccc(O)cc1)C1(O)CCCCC1 (centres unmarked) [ODV, 1-[2-(dimethylamino)-1-(4-hydroxyphenyl)ethyl]cyclohexanol], the serotonin uptake inhibition (serotonin uptake) is given as “inhibit” and the norepinephrine uptake inhibition (norepinephrine uptake) is given as “inhibit”.

Source: US20100063160A1, “POLYMORPHS OF O-DESMETHYL VENLAFAXINE SUCCINATE” (priority 2006, published 2010)
